What is called IC50 is the midpoint of a concentration-inhibition curve. Usually inhibition stands for the drop in the measured response relative to a control, in per cent.

Results on 13 molecules are retold here after US20120165319A1, “INHIBITORS OF INTERLEUKIN-1 BETA CONVERTING ENZYME” (VERTEX PHARMACEUTICALS INCORPORATED, priority 1995, published 2012).

Read-outs that look alike come from different tables or passages of the source.

In one experiment the test system is IL-1β, human whole blood. The experiment in a line: Whole blood assay for IL-1β production. The format is cell-based. As to conditions: Table 17, read-out: Whole human blood IC50. The method, boiled down: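 Human whole blood collected on Na2EDTA was treated with serially diluted compound in saline and then stimulated with LPS at 5.0 ng/ml final, for 16-18 h at 30 °C, in duplicate or triplicate. Plasma IL-1β was measured by ELISA at 1:200 dilution.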

Experiment [1] deals with IL-1β production, LPS-challenged mice. The experiment in a line: In vivo acute assay for efficacy as anti-inflammatory agent: LPS-induced IL-1β production in mice. More on the design: species or system mouse. As to conditions: LPS challenged mice, compound PO, 50 mg/kg; for inhibition at 50 mg/kg: Mus musculus, po, read-out: percent inhibition of IL-1β production. The protocol: In Vivo Acute Assay for Efficacy as Anti-Inflammatory Agent
LPS-Induced IL-1β Production.
Efficacy of 214e and 217e was evaluated in CD1 mice (n=6 per condition) challenged with LPS (20 mg/kg IP). […] Blood was collected seven hours after LPS challenge. Serum IL-1β levels were measure by ELISA. […] Similar results were obtained in a second experiment. […] However, a clear dose response was not apparent.
Compounds 214e and 217e (50 mg/kg) were also administered by oral gavage to assess absorption.
The efficacy of analogs of 214e were also evaluated in LPS challenged mice after IP administration (FIG. 9) and PO administration (FIG. 10).
[…] The protocol is described in Example 7.

Where [2] appears, read: administered 0 h relative to time of LPS challenge.
[3] abbreviates: administered −2 h relative to time of LPS challenge.
The mark [4] stands for this setting: 0 h, administered 0 h relative to time of LPS challenge.
The mark [5] stands for this setting: 2 h, administered −2 h relative to time of LPS challenge.

With `Nc1ccc(C(=O)N[C@H]2CCC(=O)N3CCC[C@@H](C(=O)N[C@H]4CC(=O)OC4OCc4ccccc4)N3C2=O)cc1Cl` (mixture of isomers) [Compound 213h, [1S,9S (2RS,3S)]9-[(3-Chloro-4-aminobenzoyl)amino]-6,10-dioxo-1,2,3,4,7,8,9,10-octahydro-N-(2-Benzyloxy-5-oxotetrahydrofuran-3-yl)-6H-pyridazino[1,2-a][1,2]diazepine-1-carboxamide], the IC50 in the experiment with IL-1β, human whole blood came to 1.5 µM. Moreover, the figures for the “percent inhibition of IL-1β production” value in experiment [1] (setting [2]) and in experiment [1] (setting [3]) were 53% and 9%, respectively.

As to `COc1c(Cl)cc(C(=O)N[C@H]2CCC(=O)N3CCC[C@@H](C(=O)N[C@H]4CC(=O)OC4OCc4ccccc4)N3C2=O)cc1Cl` (stereo partly drawn) [Compound 213m, [1S,9S(2RS,3S)]9-[(3,5-Dichloro-4-methoxybenzoyl)amino]-6,10-dioxo-1,2,3,4,7,8,9,10-octahydro-N-(2-Benzyloxy-5-oxotetrahydrofuran-3-yl)-6H-pyridazino[1,2-a][1,2]diazepine-1-carboxamide], in the experiment with IL-1β, human whole blood (Homo sapiens), the IC50 came to 2.5 µM. The inhibition at 50 mg/kg worked out at 42% in experiment [1] (setting [4]) and 26% in experiment [1] (setting [5]).

Regarding `CCOC1OC(=O)C[C@@H]1NC(=O)[C@@H]1CCCN2C(=O)CC[C@H](NC(=O)c3cc(Cl)c(OC)c(Cl)c3)C(=O)N12` (stereo partly drawn) [Compound 550m, [1S,9S(2RS,3S)]9-[(3,5-Dichloro-4-methoxybenzoyl)amino]-6,10-dioxo-1,2,3,4,7,8,9,10-octahydro-N-(2-ethoxy-5-oxotetrahydrofuran-3-yl)-6H-pyridazino[1,2-a][1,2]diazepine-1-carboxamide], the IC50 with IL-1β, human whole blood (Homo sapiens) was determined as 2 µM. For the same molecule, the inhibition at 50 mg/kg in experiment [1] (setting [4]) was found to be 52%; in experiment [1] (setting [5]) it was 45%.

In the case of `CC(=O)Nc1ccc(C(=O)N[C@H]2CCC(=O)N3CCC[C@@H](C(=O)N[C@H]4CC(=O)OC4OCc4ccccc4)N3C2=O)cc1Cl` (stereo partly drawn) [Compound 213l, [1S,9S(2RS,3S)]9-[(3-Chloro-4-acetamidobenzoyl)amino]-6,10-dioxo-1,2,3,4,7,8,9,10-octahydro-N-(2-Benzyloxy-5-oxotetrahydrofuran-3-yl)-6H -pyridazino[1,2-a][1,2]diazepine-1-carboxamide], the IC50 in the experiment on IL-1β, human whole blood (Homo sapiens) amounted to 2 µM. Also, the inhibition at 50 mg/kg is 80% in experiment [1] (setting [4]) and -18% in experiment [1] (setting [5]).

For the molecule `Cc1ccccc1C(=O)N[C@H]1CCC(=O)N2CCC[C@@H](C(=O)N[C@H]3CC(=O)OC3OCc3ccccc3)N2C1=O` (mixture of isomers) [Compound 213r, [1S,9S(2RS,3S)]N-(2-Benzyloxy-5-oxotetrahydrofuran-3-yl)-6,10-dioxo-1,2,3,4,7,8,9,10-octahydro-9-(2-toluoylamino)-6H-pyridazino[1,2-a][1,2]diazepine-1-carboxamide], in the experiment with IL-1β, human whole blood, the IC50 was less than 0.3 µM. In addition, the figures for the “percent inhibition of IL-1β production” value in experiment [1] (setting [2]) and in experiment [1] (setting [3]) were 37% and 59%, respectively.

Take `CCOC1OC(=O)C[C@@H]1NC(=O)[C@@H]1CCCN2C(=O)CC[C@H](NC(=O)c3ccc(NC(C)=O)c(Cl)c3)C(=O)N12` (stereo partly drawn) [Compound 550l, [1S,9S (2RS,3S)]9-[(3-Chloro-4-acetamidobenzoyl)amino]-6,10-dioxo-1,2,3,4,7,8,9,10-octahydro-N-(2-ethoxy-5-oxotetrahydrofuran-3-yl)-6H-pyridazino[1,2-a][1,2]diazepine-1-carboxamide]: in the experiment on IL-1β, human whole blood (Homo sapiens), the 50% inhibitory concentration (IC50) was 0.75 µM. Besides, the inhibition at 50 mg/kg in experiment [1] (setting [4]) stood at 38%; in experiment [1] (setting [5]), 9%.

In the case of `CC(=O)OC1OC(=O)CC1NC(=O)[C@@H]1CCCN2C(=O)CC[C@H](NC(=O)c3ccccc3)C(=O)N12` (mixture of isomers) [Compound 2100h, [1S,9S(2RS,3RS)]9-Benzoylamino-6,10-dioxo-1,2,3,4,7,8,9,10-octahydro-N-(2-acetoxy-5-oxotetrahydrofuran-3-yl)-6H-pyridazino[1,2-a][1,2]diazepine-1-carboxamide], in the experiment with IL-1β, human whole blood (Homo sapiens), the IC50 is 2 µM. In addition, the inhibition at 50 mg/kg in experiment [1] (setting [4]) was 32%; in experiment [1] (setting [5]) it was 34%.

Regarding `O=C1C[C@H](NC(=O)[C@@H]2CCCN3C(=O)CCN(NC(=O)c4ccc5c(c4)OCO5)C(=O)N23)C(OCc2ccccc2)O1` (stereo partly drawn) [Compound 264l, [4S(2RS,3S)]N-(2-Benzyloxy-5-oxotetrahydrofuran-3-yl)-6,10-dioxo-7-(3,4-methylenedioxybenzoylamino)-1,2,3,4,7,8,9,10-octahydro-6H-pyridazino[1,2-a][1,2,4]triazepine-4-carboxamide], in the experiment with IL-1β, human whole blood (Homo sapiens), the half-inhibitory concentration (IC50) was 3 µM. The inhibition at 50 mg/kg in experiment [1] (setting [4]) amounted to 23%; in experiment [1] (setting [5]), 0%.

As to `O=C1C[C@H](NC(=O)[C@@H]2CCCN3C(=O)CC[C@H](NC(=O)c4ccccc4)C(=O)N23)[C@H](OC2Cc3ccccc3C2)O1` [Compound 2100m, [1S,9S (2R,3S)]9-Benzamido-6,10-dioxo-N-[2-(2-indanyloxy)-5-oxo-tetrahydrofuran-3-yl]-1,2,3,4,7,8,9,10-octahydro-6H-pyridazino[1,2-a][1,2]diazepine-1-carboxamide], the results for the inhibition at 50 mg/kg in experiment [1] (setting [4]) and in experiment [1] (setting [5]) were 42% and 40%, respectively.

`COc1ccc(C(=O)N[C@H]2CCC(=O)N3CCC[C@@H](C(=O)N[C@H]4CC(=O)OC4OCc4ccccc4)N3C2=O)cc1` (mixture of isomers) [Compound 213i, [1S,9S(2RS,3S)]9-[(4-Methoxybenzoyl)amino]-6,10-dioxo-1,2,3,4,7,8,9,10-octahydro-N-(2-Benzyloxy-5-oxotetrahydrofuran-3-yl)-6H-pyridazino[1,2-a][1,2]diazepine-1-carboxamide]: the IC50 with IL-1β, human whole blood came to 1.1 µM. In addition, the figures for the “percent inhibition of IL-1β production” value in experiment [1] (setting [2]) and in experiment [1] (setting [3]) were 62% and “(−11) %”, respectively.

As to `CCOC1OC(=O)C[C@@H]1NC(=O)[C@@H]1CCCN2C(=O)CC[C@H](NC(=O)c3ccc(N(C)C)cc3)C(=O)N12` (stereo partly drawn) [Compound 550f, [1S,9S(2RS,3S)]9-[(4-Dimethylaminobenzoyl)amino]-6,10-dioxo-1,2,3,4,7,8,9,10-octahydro-N-(2-ethoxy-5-oxotetrahydrofuran-3-yl)-6H-pyridazino[1,2-a][1,2]diazepine-1-carboxamide], the IC50 with IL-1β, human whole blood (Homo sapiens) turned out to be 1.1 µM. In addition, the inhibition at 50 mg/kg in experiment [1] (setting [4]) amounted to 50%; in experiment [1] (setting [5]), 0%.

With `CN(C)c1ccc(C(=O)N[C@H]2CCC(=O)N3CCC[C@@H](C(=O)N[C@H]4CC(=O)OC4OCc4ccccc4)N3C2=O)cc1` (mixture of isomers) [Compound 213f, [1S,9S(2RS,3S)]9-[(4-Dimethylaminobenzoyl)amino]-6,10-dioxo-1,2,3,4,7,8,9,10-octahydro-N-(2-Benzyloxy-5-oxotetrahydrofuran-3-yl)-6H-pyridazino[1,2-a][1,2]diazepine-1-carboxamide], in the experiment on IL-1β, human whole blood, the half-inhibitory concentration (IC50) is 3 µM. The figures for the “percent inhibition of IL-1β production” value in experiment [1] (setting [2]) and in experiment [1] (setting [3]) were 8% and “(−4) %”, respectively.

As for `CC(=O)N1C[C@H](NC(=O)c2cc(Cl)c(O)c(Cl)c2)C(=O)N(CC(=O)N[C@H]2CC(=O)OC2OCc2ccccc2)c2ccccc21` (mixture of isomers) [Compound 655, (3S)-2-Oxo-3-(3,5-dichloro-4-hydroxybenzoyl)amino-5-acetyl-N-[(2RS,3S)-benzyloxy-5-oxo-tetrahydrofuran-3-yl]-2,3,4,5-tetrahydro-1H-1,5-benzodiazepine-1-acetamide], the “percent inhibition of IL-1β production” value in experiment [1] (setting [2]) is 68%; in experiment [1] (setting [3]), 0%.
